Data reported in ChEMBL document CHEMBL1139117, “Novel 4-(6,7-dimethoxy-1,2,3,4-tetrahydroisoquinolin-2-yl)methylbenzofuran derivatives as selective alpha(2C)-adrenergic receptor antagonists” (Bioorg Med Chem Lett, 2007).
Active and inactive are the calls of the source. The calls are words filed in the database; no cut-off is given here.

How the values were obtained:
[1] = target: T1, Alpha-2A adrenergic receptor (Homo sapiens, UniProt P08913); assay: Displacement of [3H]MK-912 from adrenergic alpha2A receptor in HT29 cells; type: cell-based, HT-29
T1 sequence (P08913 whole entry): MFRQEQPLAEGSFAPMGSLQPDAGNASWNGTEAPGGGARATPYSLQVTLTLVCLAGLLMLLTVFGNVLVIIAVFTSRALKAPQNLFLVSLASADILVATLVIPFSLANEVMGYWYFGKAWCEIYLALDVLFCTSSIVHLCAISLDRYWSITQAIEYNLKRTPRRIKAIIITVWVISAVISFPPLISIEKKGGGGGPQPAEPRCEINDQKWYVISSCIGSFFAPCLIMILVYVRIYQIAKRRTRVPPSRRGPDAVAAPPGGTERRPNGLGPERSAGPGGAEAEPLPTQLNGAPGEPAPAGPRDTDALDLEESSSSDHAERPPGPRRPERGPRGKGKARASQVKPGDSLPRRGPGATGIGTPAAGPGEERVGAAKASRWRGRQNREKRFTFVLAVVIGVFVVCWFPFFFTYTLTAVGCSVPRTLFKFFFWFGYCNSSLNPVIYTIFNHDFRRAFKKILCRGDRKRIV

[2] = target: T2, Alpha-2B adrenergic receptor (Homo sapiens, UniProt P18089); assay: Displacement of [3H]MK912 from adrenergic alpha-2B receptor expressed in COS7 cells; type: cell-based, COS-7
T2 sequence (P18089 whole entry): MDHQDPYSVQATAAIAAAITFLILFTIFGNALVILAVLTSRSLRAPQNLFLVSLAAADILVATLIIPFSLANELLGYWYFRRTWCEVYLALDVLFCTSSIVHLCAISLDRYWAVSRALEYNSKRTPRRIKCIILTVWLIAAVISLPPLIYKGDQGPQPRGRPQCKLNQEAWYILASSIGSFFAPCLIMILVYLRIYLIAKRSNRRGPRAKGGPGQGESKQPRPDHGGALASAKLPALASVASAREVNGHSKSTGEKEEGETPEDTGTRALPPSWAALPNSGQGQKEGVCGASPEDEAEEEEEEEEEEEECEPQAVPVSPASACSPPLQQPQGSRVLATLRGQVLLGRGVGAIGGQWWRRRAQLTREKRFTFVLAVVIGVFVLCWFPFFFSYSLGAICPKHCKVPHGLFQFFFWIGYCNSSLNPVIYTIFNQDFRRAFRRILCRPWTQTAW

[3] = target: T3, Alpha-2C adrenergic receptor (Homo sapiens, UniProt P18825); assay: Displacement of [3H]MK912 from adrenergic Alpha-2C receptor in HepG2 cells; type: cell-based
T3 sequence (P18825 whole entry): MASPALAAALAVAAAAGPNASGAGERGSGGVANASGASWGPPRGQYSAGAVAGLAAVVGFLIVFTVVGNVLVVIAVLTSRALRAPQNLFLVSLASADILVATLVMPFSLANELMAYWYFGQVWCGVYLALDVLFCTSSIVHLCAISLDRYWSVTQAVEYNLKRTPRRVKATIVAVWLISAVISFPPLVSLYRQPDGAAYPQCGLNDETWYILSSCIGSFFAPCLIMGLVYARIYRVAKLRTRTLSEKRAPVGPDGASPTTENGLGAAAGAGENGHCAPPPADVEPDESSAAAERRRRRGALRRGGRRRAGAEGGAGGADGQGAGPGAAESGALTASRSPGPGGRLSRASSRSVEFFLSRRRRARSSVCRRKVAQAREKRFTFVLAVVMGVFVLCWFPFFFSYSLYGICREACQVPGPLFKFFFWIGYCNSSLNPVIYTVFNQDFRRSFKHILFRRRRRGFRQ

Callithrix jacchus [4] = assay: Activity against […] induced dyskinetic activity in marmoset at 2.5 mg/kg, po; type: functional, organism-based; design: dose 2.5 mg/kg
[5] = AUC in mormoset at 2.5 mg/kg; type: ADME, organism-based, Callithrix jacchus; design: dose 2.5 mg/kg; conditions: marmoset, plasma
[6] = target: T4, Alpha-2C adrenergic receptor (Homo sapiens) (UniProt P18825); assay: Displacement of [3H]MK912 from adrenergic alpha-2C receptor in HepG2 cells at 0.1 uM; type: cell-based
T4 sequence (whole entry): T3 sequence (P18825 whole entry)

Callithrix jacchus [7] = assay: Activity against […] induced dyskinetic activity in marmoset at 30 mg/kg, po; type: functional, organism-based; design: dose 30 mg/kg
[8] = target: T5, Alpha-2A adrenergic receptor (Homo sapiens) (UniProt P08913); assay: Displacement of [3H]MK912 from adrenergic alpha2A receptor in HT29 cells at 0.1 uM; type: cell-based; conditions: HT-29
T5 sequence (whole entry): T1 sequence (P08913 whole entry)

[9] = target: T6, Alpha-2B adrenergic receptor (Homo sapiens) (UniProt P18089); assay: Displacement of [3H]MK912 from adrenergic alpha-2B receptor expressed in COS7 cells at 0.1 uM; type: cell-based; conditions: COS-7
T6 sequence (whole entry): T2 sequence (P18089 whole entry)

SMILES | Ki [1] [nM] | Ki [2] [nM] | Ki [3] [nM] | inhibition [6] [%] | also measured
COc1cc2c(cc1OC)CN(Cc1ccc(OC)c3oc(-c4ccccc4)cc13)CC2 | 1740 | 752 | 20 |  | Activity (Callithrix jacchus [4]): Active; AUC [5]: 11 ng·h/mL
COc1cc2c(cc1OC)CN(Cc1cc(OC)c3oc(C(=O)NCCN(C)C)cc3c1)CC2 |  |  |  | 41 | 
COc1cc2c(cc1OC)CN(Cc1ccc(OC)c3oc(-c4cccc(C(=O)NCCN(C)C)c4)cc13)CC2 | 216 | 584 | 9.4 |  | 
COc1cc2c(cc1OC)CN(Cc1ccc(OC)c3oc(-c4cccc(C(=O)NCCO)c4)cc13)CC2 |  |  |  | 54 | inhibition [8]: 29%; inhibition [9]: 31%
COc1cc2c(cc1OC)CN(Cc1ccc(OC)c3oc(C(=O)NC4CN5CCC4CC5)cc13)CC2 (stereo not given) | 42 | 857 | 0.8 |  | 
COc1ccc(-c2cc3c(CN4CCc5cc(OC)c(OC)cc5C4)ccc(OC)c3o2)cc1 |  |  |  | 56 | 
COc1cc2c(cc1OC)CN(Cc1ccc3cc(C(=O)NCCN(C)C)oc3c1OC)CC2 |  |  |  | 65 | inhibition [8]: 20%; inhibition [9]: 15%
COc1cc2c(cc1OC)CN(Cc1ccc(OC)c3oc(-c4ccc(C(F)(F)F)cc4)cc13)CC2 |  |  |  | 18 | 
CCCNC(=O)c1cc2c(CN3CCc4cc(OC)c(OC)cc4C3)ccc(OC)c2o1 |  |  |  | 20 | 
COc1cc2c(cc1OC)CN(Cc1ccc(OC)c3oc(C(=O)NCC(C)(C)N)cc13)CC2 | 141 | 1540 | 4.2 |  | 
COc1cc2c(cc1OC)CN(Cc1ccc(OC)c3oc(C(=O)N4CCC(N5CCCC5)CC4)cc13)CC2 | 186 | 1360 | 3.5 |  | 
COc1cc2c(cc1OC)CN(Cc1ccc(OC)c3oc(-c4cccc(C#N)c4)cc13)CC2 |  |  |  | 42 | 
COc1cc2c(cc1OC)CN(Cc1ccc(OC)c3oc(-c4ccncc4)cc13)CC2 |  |  |  | 35 | 

More lines, main results first:

Ki [1] [nM] | Ki [2] [nM] | Ki [3] [nM] | inhibition [6] [%] | SMILES | also measured
304 | 949 | 18 |  | COc1cc2c(cc1OC)CN(Cc1ccc(OC)c3oc(-c4ccccc4C(F)(F)F)cc13)CC2 | 
 |  |  | 29 | COc1ccc(CN2CCN(c3ccccc3)CC2)c2cc(-c3ccccc3)oc12 | 
454 | 2070 | 9.4 |  | COc1cc2c(cc1OC)CN(Cc1ccc(OC)c3oc(C(=O)NCCN(C)C)cc13)CC2 | Activity (Callithrix jacchus [7]): inactive; AUC [5]: 144 ng·h/mL
 |  |  | 94 | COc1ccc(CN2CCc3ccccc3C2)c2cc(C(=O)NCCN(C)C)oc12 | inhibition [8]: 88%; inhibition [9]: 51%
 |  |  | 62 | COc1cc2c(cc1OC)CN(Cc1ccc(OC)c3oc(-c4cccnc4)cc13)CC2 | 
 |  |  | 48 | CCCNC(=O)c1cccc(-c2cc3c(CN4CCc5cc(OC)c(OC)cc5C4)ccc(OC)c3o2)c1 | 
135 | 330 | 9.6 |  | COc1cc2c(cc1OC)CN(Cc1ccc(OC)c3oc(-c4ccccn4)cc13)CC2 | 
 |  |  | 9 | COc1cc2c(cc1OC)CN(Cc1ccc(OC)c3oc(C(=O)NCCNC(C)=O)cc13)CC2 | 
400 | 370 | 19 |  | COc1cc2c(cc1OC)CN(Cc1cnc(N)n3nc(-c4ccco4)nc13)CC2 | 
 |  |  | 39 | COc1cc2c(cc1OC)CN(Cc1ccc3cc(-c4ccccc4)oc3c1OC)CC2 | 
857 | 299 | 11 |  | COc1cc2c(cc1OC)CN(Cc1ccc(OC)c3oc(-c4ccccc4F)cc13)CC2 | 
2550 | 804 | 19 |  | COc1cccc(-c2cc3c(CN4CCc5cc(OC)c(OC)cc5C4)ccc(OC)c3o2)c1 | 
 |  |  | 54 | COc1ccc(CN2CCc3ccccc3C2)c2cc(-c3ccccc3)oc12 | inhibition [8]: 30%; inhibition [9]: 51%
 |  |  | 41 | COc1cc2c(cc1OC)CN(Cc1ccc(OC)c3oc(-c4ccc(F)cc4)cc13)CC2 | 
 |  |  | 35 | COc1cc2c(cc1OC)CN(Cc1ccc(OC)c3oc(-c4ccccc4OC)cc13)CC2 | inhibition [8]: 11%; inhibition [9]: 20%
 |  |  | 6 | COc1cc2c(cc1OC)CN(Cc1ccc(OC)c3oc(C(=O)NCCO)cc13)CC2 | 
 |  |  | 52 | COc1cc2c(cc1OC)CN(Cc1ccc(OC)c3oc(-c4cccc(F)c4)cc13)CC2 | inhibition [8]: 3%; inhibition [9]: 13%
 |  |  | 19 | COc1cc2c(cc1OC)CN(Cc1cc(OC)c3oc(-c4ccccc4)cc3c1)CC2 | 
204 | 160 | 8 |  | COc1cc2c(cc1OC)CN(Cc1ccc(OC)c3oc(-c4ccco4)cc13)CC2 | 
 |  |  | 68 | COc1ccc(CN2CCN(c3ccccc3)CC2)c2cc(C(=O)NCCN(C)C)oc12 | inhibition [8]: 80%; inhibition [9]: 33%
